Experimental data from patent US4595530A, “Thiodeazapurine derivatives” (Takeda Chemical Industries, Ltd., priority 1983, dated 1986).
Converted amounts (≈) assume the structure as drawn.

Experiments:
L5178Y mouse tumor cells = assay: growth inhibition of cultured L5178Y cells; assay type: cell-based; details: 72 hours incubation with drug, cell count vs non-treated control, read-out: IC50 (50% growth inhibitory concentration)
Method: 1×10^4 L5178Y mouse tumor cells were suspended in 2 ml of a RPMI-1640 medium containing 10% of bovine fetal serum, 20 μM of 2-mercaptoethanol and 100 μg/ml kanamycin (Nissui Pharmaceutical Co., Ltd. Japan), and incubated at 37° C. for 24 hours before addition of the drug. Using the above culture fluid as a diluent, the compound of Example 1 was diluted 1/4-fold in a series of 5 stages, the maximum concentration of the compound in the medium being 200 μg/ml. The dilutions were further incubated for 72 hours, at the end of which time the cells were counted and the IC50 (50% growth inhibitory concentration) was calculated with the count for the non-treated control group being taken as 100%.

[1] = tested on: rat liver tRNA-guanine transglycosylase; assay: uptake of compound into tRNA ([3H]-guanine labeled tRNA exchange); assay type: biochemical; details: 0.02 OD260 of compound, 37° C., 17 hours, 0.5 unit enzyme
Method: [^3 H]-Guanine labeled tRNA^(*^) (8000 cpm), 70 mM of tris hydrochloride, 60 mM of magnesium chloride, 0.5 unit of rat liver tRNA-guanine transglycosylase and 0.02 OD260 of the compound of Example 1 (which appears hereinafter) (100 μl) were incubated at 37° C. for 17 hours. The reaction mixture was applied to a Whatman 3 MM filter paper (Whatman Co., U.S.A.) and washed 3 times with a 5% aqueous solution of trichloroacetic acid and, then, once each with ethanol/ether (1:1) and ether alone. After drying, the uptake of the test compound was determined in a toluenic scintillation fluid.
^(*^) tRNA with the firstletter (base) of its anticodon labeled with [^3 H]guanine.
The uptake of the compound of Example 2 into tRNA was determined in the same manner as Experimental Example 1. The result was 57%.

Meth A tumor cells = assay: Meth A tumor growth inhibition in mice; assay type: in vivo; details: BALB/c mouse, s.c. transplant, 100 mg/kg i.p. once daily for 14 days from day 4, tumor weight on 35th day
Method: 5×10^4 Meth A tumor cells were subcutaneously transplanted into a BALB/c mouse weighing 20 g and starting on the 4th day after transplantation, a solution of the compound of Example 1 in 0.1 ml of distilled water was intraperitoneally injected into the mouse once daily in a dose of 100 mg/kg for 14 consecutive days. On the 35th day after transplantation, the tumor node was enucleated and weighed.

Row | IC50 (L5178Y mouse tumor cells) | uptake of the test compound into tRNA (% of tRNA) [1] | SMILES | tumor growth inhibition rate (Meth A tumor cells)
1 | 22 µg/mL (≈ 75 µM) | 81% | Nc1nc2[nH]cc(CN[C@H]3C=C[C@H](O)[C@@H]3O)c2c(=S)[nH]1 [Example 1, 2-amino-5-[(3S,4R,5S)-4,5-dihydroxycyclopent-1-en-3-ylaminomethy-]pyrrolo[2,3-d]pyrimidine-4-thione] | 71%
2 |  | 57% | NCc1c[nH]c2nc(N)[nH]c(=S)c12 [Example 2, 2-amino-5-aminomethylpyrrolo[2,3-d]pyrimidine-4-thione] | 
